Numbering of substitutions follows the chain as printed. Calls of active or inactive are those of the source. No cut-off for these calls is given here.

The subject of experiment [1] is Transglutaminase 2 (Homo sapiens). Put plainly: Inhibition of human recombinant thioredoxin-mediated TG2 activation expressed in T84 cells assessed as blockade of 5-biotinamidopentylamine incorporation at 25 uM after 3 hrs by fluorescence microscopic analysis.
Another experiment addresses T1, Thioredoxin (Homo sapiens, UniProt P10599).
T1 sequence (P10599 whole entry): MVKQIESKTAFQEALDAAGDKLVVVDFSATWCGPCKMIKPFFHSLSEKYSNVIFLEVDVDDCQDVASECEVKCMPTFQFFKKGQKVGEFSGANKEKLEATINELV
Put plainly: Inhibition of human recombinant thioredoxin-mediated TG2 activation expressed in T84 cells assessed as blockade of 5-biotinamidopentylamine incorporation after 3 hrs by streptavidin-HRP/TMB absorbance assay.

In experiment [2] the test system is T2, Thioredoxin (Homo sapiens), P10599 [W31A].
T2 sequence (whole entry): T1 sequence (P10599 whole entry) with W31A
In words: Inhibition of human thioredoxin W31A mutant.

The target of experiment [3] is T3, Thioredoxin (Homo sapiens) (UniProt P10599).
T3 sequence (whole entry): T1 sequence (P10599 whole entry)
Put plainly: Inhibition of wild type human thioredoxin by insulin turbidity assay. The conditions noted are these: concentration not given here.

For `O=C(NC[C@@H]1CC(Br)=NO1)[C@@H]1CCCN1C(=O)OCc1cnc2ccccc2c1`, the inhibition entry in experiment [1] is “Active”. In the case of `CCC(C)SSc1ncc[nH]1` (centres undefined) [PX-12], the IC50 on Thioredoxin was 2110 nM.

For `CCC(C)SSc1nc2ccccc2[nH]1` (centres undefined), the Ratio in experiment [2] came to 1.42 µM⁻¹ min⁻¹. Also, in experiment [3], the inhibition is 78%.

For the origin of these results see ChEMBL document CHEMBL2311287, “Selective inhibition of extracellular thioredoxin by asymmetric disulfides” (J Med Chem, 2013).
